Source: patent US20050221328A1, “Inhibitors of inflammatory gene activity and cholesterol biosynthesis” (Wyeth, priority 2002, published 2005)

Assays:
[1] = test system: hepatic inflammatory gene expression
Description: Ovariectornized C57BL/6 mice (16-20g) (Taconic) were separated into groups of 8. After 5-7 days of recuperation, the mice were fed a casein based diet (#8117, Test Diet, Richmond, IN) for five days. […] At the end of the experimental period, the liver was collected for RNA analysis.
Liver total RNA was prepared using Trizol reagent (BRL) and quantitated by real time RT-PCR using an ABI PRISM 7700 Detection System according to the manufacturer's protocol (Applied Biosystem). The data was analyzed using the Sequence Dector v1.7 software (Applied Biosystems) and normalized to GAPDH using Applied Biosystems primer set.
Feeding C57BL/6 mice a high fat diet containing cholate has been shown previously to induce inflammatory gene expression in the mouse liver after 3-5 weeks (Liao et al '93 JCI 91:2572, Evans et al. '01 Circ Res 89:823 & Miyake et al '00 JBC 275:21805).
To determine whether signaling via FXR was necessary to result in inflammatory gene expression, 1% UDCA was supplemented into the chow diet.
In particular, referring to FIG. 21a-d, C57BL/6 mice were fed either a chow, atherogenic or high fat diet (atherogenic diet without sodium cholate) as indicated. After 5 weeks, hepatic mRNA levels of the indicated genes were determined by real time PCR. […] After 5 days, hepatic mRNA levels of the indicated genes were determined by real time PCR. Data are reported as mean±SEM for each group. Referring to FIG. 23a-b: C57BL/6 mice were fed a chow diet supplemented with 1% ursodeoxycholic acid (UDCA). After 5 days, hepatic mRNA levels of the indicated genes were determined by real time PCR. […] Data are reported as mean±SEM for each group.

HepG2 cells = test: Gene expression in HepG2 cells treated 24 hr with CDCA or GW 4064; format: cell-based, human; conditions: HepG2, 24 hr
Description: HepG2 cells were maintained in growth media at 37° C. in a 5% CO2 incubator. The cells were seeded in deficient growth media (phenol red free DMEM (Gibco BRL) supplemented with heat-inactivated 10% FBS, 1% Glutamax, 1% MEM non-essential amino acids, 100 U/ml penicillin and 100 μg/ml streptomycin) at 4-5×10^5 cells per well in a 6 well dish (Falcon). The cells were then placed into serum deficient media for 24 hr before addition of the compounds for an additional 24 hrs. The cells were then harvested for RNA analysis.
To further investigate the possibility that bile acid signaling through FXR can promote inflammatory gene expression, experiments were conducted in the hepatocyte cell line, HepG2. […] HepG2 cells express a number of inflammatory genes including ICAM-1 and M-CSF constitutively (Stonans et al '99 Cytokine 11:151). […] As positive controls, the induction of SHP mRNA and the repression of cyp7a were confirmed.
Referring to FIG. 24a-b, HepG2 cells were treated for 24 hr with increasing concentrations of chenodeoxycholic acid (CDCA). […] Data are reported as mean±SEM for each group. C57BL/6 mice. […] Data are reported as mean±SEM for each group.

[2] = test system: Fnk, JAB, LIX, bcl-3 and SHP; test: Liver expression of Fnk, JAB, LIX, bcl-3 and SHP by realtime PCR after estrogen receptor ligand pretreatment and IL-1β; conditions: mice; 100 ug/kg/day EE, 1 or 10 mg/kg/day E2, 30 mg/kg/day genistein, 5 mg/kg/day raloxifene, 10 mg/kg/day ICI182780; plus IL-1β
Description: Referring to FIG. 3a, to distinguish these two mechanisms, the IL-1β fold induction of Fnk, JAB, LIX, and bcl-3 and the IL-1β fold repression of SHP was quantified in animals pretreated with vehicle (black bars) or 100 ug/kg/day EE (grey bars). Liver RNA levels of each gene (mean +/−SEM) were determined by realtime PCR of RNA from each individual animal.
Referring to FIGS. 4a, 4b, 4c, 4d and 4e, experiments were conducted to determine whether EE blocks IL-1β induction of gene expression by an estrogen receptor (ER) dependent mechanism. Estrogens can regulate gene expression by many mechanisms including ER independent pathways such as antioxidant mechanisms. […] Liver expression levels of Fnk, JAB, LIX, bcl-3 and SHP (mean +/−SEM) were determined by realtime PCR.
Referring to FIGS. 5a, 5b, 5c, 5d, and 5e, experiments were conducted to determine whether ERα is required for EE regulation of gene expression in the liver. To determine whether ERα or ERβ mediated the EE effects on IL-1β gene expression in the liver, C57BL/6 wild type mice, C57BL/6 ERαKO mice, or 129 ERβKO mice were pretreated with vehicle (black bars) or […] EE (gray bars) for 5 days followed by a 1 hour treatment with IL-1β. Liver expression levels of Fnk, JAB, LIX, bcl-3, and SHP (mean +/−SEM) were quantified by realtime PCR, with expression in animals receiving vehicle+PBS defined as 1.0.

SHP = test: Regulation of SHP expression in mouse liver, six weeks treatment, real time PCR; format: in vivo
Description: Several experiments were conducted to investigate the regulation of SHP expression, as follows. Referring to FIG. 9, ERα regulation of SHP expression in mouse liver was studied. […] Liver expression of SHP was monitored by real time PCR, with normalization for GAPDH expression. […] ICI182780 inhibited this induction.

human SHP promoter = test: hSHP promoter luciferase reporter in HepG2 or 293 cells cotransfected with human ERα; format: cell-based; conditions: 293 cells with human ERα; for SHP promoter activity, compound alone: 10 nM E2 or 1 uM compound, 24 hours
Description: Referring to FIGS. 11a and 11b, ERα regulation of hSHP promoter activity in human cells was examined. Human HepG2 or 293 cells were cotransfected with a control SV40 driven β-galactosidase plasmid, a luceriferase plasmid driven by 1.4 kb of the human SHP promoter, and an expression plasmid encoding either no protein or human ERα. […] Cell extracts were then analyzed for luciferase activity normalized for β-galactosidase activity.
Referring to FIGS. 12a, 12b, and 12c, ERα regulation of hSHP promoter activity in 293 cells was examined. Referring to FIGS. 12a and 12b, 293 cells were cotransfected with a control SV4O driven […] plasmid, a luceriferase plasmid driven by either 1.4 kb of the human SHP promoter or a synthetic 2×ERE/TK promoter, and an expression plasmid for human ERα. […] Cell extracts were then analyzed for luciferase activity with normalization for β-galaetosidase activity.

[3] = C57BL/6 mice, chow with CA 0.01-1.0%, 5 days
[4] = CDCA 1-100 uM or GW 4064 1-1000 nM

`C[C@H](CCC(=O)O)[C@H]1CC[C@H]2[C@@H]3[C@H](O)C[C@@H]4C[C@H](O)CC[C@]4(C)[C@H]3C[C@H](O)[C@]12C` [CA, cholic acid] was tested, and the “hepatic ICAM-1 mRNA” value [1, 3] was “dose dependent induction”, the “induction of hepatic RANTES mRNA” value [1, 3] was 1.75 fold and the “induction of hepatic TNFα mRNA” value [1, 3] was 4 fold. For the same compound, the “induction of hepatic VCAM-1 mRNA” value [1, 3] was 3 fold, the “CA supplementation sufficient to induce inflammatory gene expression” value ([1]; chow fed mice, acute exposure) was 0.3% and the “induction of hepatic SHP expression” value ([1]; mice fed 1% CA or UDCA, 5 days) was “only observed with CA”.
With `C[C@H](CCC(=O)O)[C@H]1CC[C@H]2[C@@H]3[C@H](O)C[C@@H]4C[C@H](O)CC[C@]4(C)[C@H]3CC[C@]12C` [CDCA, chenodeoxycholic acid] the ICAM-1 expression (HepG2 cells; [4]) was “induced in a dose dependent manner”, the M-CSF expression (HepG2 cells; [4]) was “induced in a dose dependent manner” and the “SHP mRNA” value (HepG2 cells; positive control) was “induction”. For the same compound, the cyp7a expression (HepG2 cells; positive control) was “repression”.
For `C[C@]12CC[C@@H]3c4ccc(O)cc4C[C@@H](CCCCCCCCC[S+]([O-])CCCC(F)(F)C(F)(F)F)[C@H]3[C@@H]1CC[C@@H]2O` (stereo partly drawn) [ICI-182780], the “effect on regulation of liver Fnk, JAB, LIX, bcl-3 and SHP expression vs IL-1β alone” value [2] was “no effect”, the “effect on E2 induction of liver SHP mRNA” value (SHP; WT mice, 10 ug/kg/day E2+5 mg/kg/day ICI182780, six weeks) was “inhibited” and the “SHP promoter activity, compound alone” value (human SHP promoter) was “inactive alone”. The “effect on E2 activity at SHP promoter” value (human SHP promoter; 1 uM compound plus 10 nM E2) was “antagonized”.
In the case of `C[C@H](CCC(=O)O)[C@H]1CC[C@H]2[C@@H]3[C@@H](O)C[C@@H]4C[C@H](O)CC[C@]4(C)[C@H]3CC[C@]12C` [UDCA, ursodeoxycholic acid], the cyp3a expression ([1]; mouse, in vivo) is reported as “induced” and the cyp7a expression ([1]; mouse, in vivo) is reported as “repress”.
With `CC/C(=C(\c1ccccc1)c1ccc(OCCN(C)C)cc1)c1ccccc1` [tamoxifen] the “liver SHP mRNA levels, WT animals” value (SHP; ovariectomized wildtype mice, sc six weeks, 10 ug/kg/day E2, 5 mg/kg/day tamoxifen, 5 mg/kg/day PPT) was “induced” and the “SHP promoter activity, compound alone” value (human SHP promoter) was “stimulated”.
